Target: T1, rat B1R (bradykinin receptor 1) (Rattus norvegicus, UniProt P97583)
T1 construct: expressed in transfected cells; host or cells: CHO K1 cells
T1 sequence (P97583 1-337): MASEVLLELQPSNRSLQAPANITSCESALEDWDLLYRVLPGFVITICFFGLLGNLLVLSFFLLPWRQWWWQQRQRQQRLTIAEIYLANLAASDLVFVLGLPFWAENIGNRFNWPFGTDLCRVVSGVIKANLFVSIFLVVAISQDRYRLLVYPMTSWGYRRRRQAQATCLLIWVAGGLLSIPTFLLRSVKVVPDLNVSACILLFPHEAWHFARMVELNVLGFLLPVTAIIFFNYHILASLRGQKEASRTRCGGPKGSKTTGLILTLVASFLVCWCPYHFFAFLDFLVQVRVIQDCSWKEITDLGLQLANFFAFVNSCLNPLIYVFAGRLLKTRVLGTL
Assay: FLIPR Ca2+ assay (Fluo-4) on CHO K1 cells stably transfected with the B1R gene of the rat (rB1R cells): % inhibition at 10 μM / IC50, agonist Des-Arg9-bradykinin
Assay type: cell-based
Settings: CHO-K1, rat B1R
How it was run: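 Stable CHO K1 lines, Fluo-4 dye, probenecid-containing buffer. Cpd 10 μM or dose range, 10–20 min, then EC80 agonist (h: Lys-Des-Arg9-BK; r: Des-Arg9-BK). Readout peak FC; % inhibition vs max; IC50 from n=2–3, N≥2.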

inhibition at 10 µM [%] | SMILES
102 | CN(C(=O)C1CCCC1)C1CCc2ccc(C(=O)N3CCC4(CC3)CCN(c3ccncc3)CC4)cc21 (stereo not shown) [IND_CC-392, N-Methyl-N-[6-(9-pyridin-4-yl-3,9-diazaspiro[5.5]undecane-3-carbonyl)-2,3-dihydro-1H-inden-1-yl]-cyclopentanecarboxylic acid amide]
103 | O=C(NC1CCc2ccc(C(=O)N3CCC4(CCN(c5ccncc5)CC4)C3)cc21)C1CCCC1 (stereo not shown) [IND_CC-394, N-[6-(8-Pyridin-4-yl-2,8-diazaspiro[4.5]decane-2-carbonyl)-2,3-dihydro-1H-inden-1-yl]-cyclopentanecarboxylic acid amide]
103 | CN(C(=O)c1ccccc1F)C1CCc2ccc(C(=O)N3CCC4(CC3)CCN(c3ccncc3)CC4)cc21 (stereo not shown) [IND_CC-400, 2-Fluoro-N-methyl-N-[6-(9-pyridin-4-yl-3,9-diazaspiro[5.5]undecane-3-carbonyl)-2,3-dihydro-1H-inden-1-yl]-benzamide]
97 | CCCC(=O)N(C)C1CCc2ccc(C(=O)N3CCC4(CC3)CCN(c3ccncc3)CC4)cc21 (stereo not shown) [IND_CC-410, N-Methyl-N-[6-(9-pyridin-4-yl-3,9-diazaspiro[5.5]undecane-3-carbonyl)-2,3-dihydro-1H-inden-1-yl]-butyramide]
99 | CN(C(=O)CCC1CCCC1)C1CCc2ccc(C(=O)N3CCC4(CC3)CCN(c3ccncc3)CC4)cc21 (stereo not shown) [IND_CC-412, 3-Cyclopentyl-N-methyl-N-[6-(9-pyridin-4-yl-3,9-diazaspiro[5.5]undecane-3-carbonyl)-2,3-dihydro-1H-inden-1-yl]-propionamide]
103 | O=C(CCC1CCCC1)NC1CCc2ccc(C(=O)N3CCC4(CCN(c5ccncc5)CC4)C3)cc21 (stereo not shown) [IND_CC-413, 3-Cyclopentyl-N-[6-(8-pyridin-4-yl-2,8-diazaspiro[4.5]decane-2-carbonyl)-2,3-dihydro-1H-inden-1-yl]-propionamide]
102 | CN(C(=O)C1CCC1)C1CCc2ccc(C(=O)N3CCC4(CC3)CCN(c3ccncc3)CC4)cc21 (stereo not shown) [IND_CC-414, N-Methyl-N-[6-(9-pyridin-4-yl-3,9-diazaspiro[5.5]undecane-3-carbonyl)-2,3-dihydro-1H-inden-1-yl]-cyclobutanecarboxylic acid amide]
101 | CCC(C)C(=O)N(C)C1CCc2ccc(C(=O)N3CCC4(CC3)CCN(c3ccncc3)CC4)cc21 (stereo not shown) [IND_CC-416, N,2-Dimethyl-N-[6-(9-pyridin-4-yl-3,9-diazaspiro[5.5]undecane-3-carbonyl)-2,3-dihydro-1H-inden-1-yl]-butyramide]
99 | CC(C)C(=O)N(C)C1CCc2ccc(C(=O)N3CCC4(CC3)CCN(c3ccncc3)CC4)cc21 (stereo not shown) [IND_CC-418, N,2-Dimethyl-N-[6-(9-pyridin-4-yl-3,9-diazaspiro[5.5]undecane-3-carbonyl)-2,3-dihydro-1H-inden-1-yl]-propionamide]

Continued, compound first:

SMILES | inhibition at 10 µM [%]
O=C(NC1CCc2ccc(C(=O)N3CCC4(CC3)CCN(c3ccncc3)C4)cc21)C1CCCC1 (stereo not shown) [IND_CC-393, N-[6-(2-Pyridin-4-yl-2,8-diazaspiro[4.5]decane-8-carbonyl)-2,3-dihydro-1H-inden-1-yl]-cyclopentanecarboxylic acid amide] | 103
CN(C(=O)c1ccc(C(F)(F)F)cn1)C1CCc2ccc(C(=O)N3CCC4(CC3)CCN(c3ccncc3)CC4)cc21 (stereo not shown) [IND_CC-395, N-Methyl-N-[6-(9-pyridin-4-yl-3,9-diazaspiro[5.5]undecane-3-carbonyl)-2,3-dihydro-1H-inden-1-yl]-5-(trifluoromethyl)-pyridine-2-carboxylic acid amide] | 58
O=C(NC1CCc2ccc(C(=O)N3CCC4(CCN(c5ccncc5)CC4)C3)cc21)c1ccc(C(F)(F)F)cn1 (stereo not shown) [IND_CC-396, N-[6-(8-Pyridin-4-yl-2,8-diazaspiro[4.5]decane-2-carbonyl)-2,3-dihydro-1H-inden-1-yl]-5-(trifluoromethyl)-pyridine-2-carboxylic acid amide] | 81
O=C(NC1CCc2ccc(C(=O)N3CCC4(CC3)CCN(c3ccncc3)CC4)cc21)c1cnccn1 (stereo not shown) [IND_CC-397, N-[6-(9-Pyridin-4-yl-3,9-diazaspiro[5.5]undecane-3-carbonyl)-2,3-dihydro-1H-inden-1-yl]-pyrazine-2-carboxylic acid amide] | 68
O=C(NC1CCc2ccc(C(=O)N3CCC4(CCN(c5ccncc5)CC4)C3)cc21)c1cnccn1 (stereo not shown) [IND_CC-398, N-[6-(8-Pyridin-4-yl-2,8-diazaspiro[4.5]decane-2-carbonyl)-2,3-dihydro-1H-inden-1-yl]-pyrazine-2-carboxylic acid amide] | 88
O=C(NC1CCc2ccc(C(=O)N3CCC4(CC3)CCN(c3ccncc3)CC4)cc21)c1ccccc1F (stereo not shown) [IND_CC-399, 2-Fluoro-N-[6-(9-pyridin-4-yl-3,9-diazaspiro[5.5]undecane-3-carbonyl)-2,3-dihydro-1H-inden-1-yl]-benzamide] | 101
O=C(NC1CCc2ccc(C(=O)N3CCC4(CC3)CCN(c3ccncc3)C4)cc21)c1ccccc1F (stereo not shown) [IND_CC-401, 2-Fluoro-N-[6-(2-pyridin-4-yl-2,8-diazaspiro[4.5]decane-8-carbonyl)-2,3-dihydro-1H-inden-1-yl]-benzamide] | 103
O=C(NC1CCc2ccc(C(=O)N3CCC4(CCN(c5ccncc5)CC4)C3)cc21)c1ccccc1F (stereo not shown) [IND_CC-402, 2-Fluoro-N-[6-(8-pyridin-4-yl-2,8-diazaspiro[4.5]decane-2-carbonyl)-2,3-dihydro-1H-inden-1-yl]-benzamide] | 102
CN(C1CCc2ccc(C(=O)N3CCC4(CC3)CCN(c3ccncc3)CC4)cc21)S(=O)(=O)c1c(Cl)cc(C(F)(F)F)cc1Cl (stereo not shown) [IND_CC-403, 2,6-Dichloro-N-methyl-N-[6-(9-pyridin-4-yl-3,9-diazaspiro[5.5]undecane-3-carbonyl)-2,3-dihydro-1H-inden-1-yl]-4-(trifluoromethyl)-benzenesulfonic acid amide] | 97
O=C(c1ccc2c(c1)C(NS(=O)(=O)c1c(Cl)cc(C(F)(F)F)cc1Cl)CC2)N1CCC2(CCN(c3ccncc3)CC2)C1 (stereo not shown) [IND_CC-404, 2,6-Dichloro-N-[6-(8-pyridin-4-yl-2,8-diazaspiro[4.5]decane-2-carbonyl)-2,3-dihydro-1H-inden-1-yl]-4-(trifluoromethyl)-benzenesulfonic acid amide] | 92
CN(C1CCc2ccc(C(=O)N3CCC4(CC3)CCN(c3ccncc3)CC4)cc21)S(=O)(=O)c1ccc(Br)cc1Cl (stereo not shown) [IND_CC-405, 4-Bromo-2-chloro-N-methyl-N-[6-(9-pyridin-4-yl-3,9-diazaspiro[5.5]undecane-3-carbonyl)-2,3-dihydro-1H-inden-1-yl]-benzenesulfonic acid amide] | 96
CN(C1CCc2ccc(C(=O)N3CCC4(CC3)CCN(c3ccncc3)CC4)cc21)S(=O)(=O)c1c(Cl)cc(Cl)cc1Cl (stereo not shown) [IND_CC-406, 2,4,6-Trichloro-N-methyl-N-[6-(9-pyridin-4-yl-3,9-diazaspiro[5.5]undecane-3-carbonyl)-2,3-dihydro-1H-inden-1-yl]-benzenesulfonic acid amide] | 102
O=C(c1ccc2c(c1)C(NS(=O)(=O)c1c(Cl)cc(Cl)cc1Cl)CC2)N1CCC2(CCN(c3ccncc3)CC2)C1 (stereo not shown) [IND_CC-407, 2,4,6-Trichloro-N-[6-(8-pyridin-4-yl-2,8-diazaspiro[4.5]decane-2-carbonyl)-2,3-dihydro-1H-inden-1-yl]-benzenesulfonic acid amide] | 101
CC(C)CC(=O)NC1CCc2ccc(C(=O)N3CCC4(CCN(c5ccncc5)CC4)C3)cc21 (stereo not shown) [IND_CC-409, 3-Methyl-N-[6-(8-pyridin-4-yl-2,8-diazaspiro[4.5]decane-2-carbonyl)-2,3-dihydro-1H-inden-1-yl]-butyramide] | 102
CCCC(=O)NC1CCc2ccc(C(=O)N3CCC4(CCN(c5ccncc5)CC4)C3)cc21 (stereo not shown) [IND_CC-411, N-[6-(8-Pyridin-4-yl-2,8-diazaspiro[4.5]decane-2-carbonyl)-2,3-dihydro-1H-inden-1-yl]-butyramide] | 101
O=C(NC1CCc2ccc(C(=O)N3CCC4(CCN(c5ccncc5)CC4)C3)cc21)C1CCC1 (stereo not shown) [IND_CC-415, N-[6-(8-Pyridin-4-yl-2,8-diazaspiro[4.5]decane-2-carbonyl)-2,3-dihydro-1H-inden-1-yl]-cyclobutanecarboxylic acid amide] | 100
CCC(C)C(=O)NC1CCc2ccc(C(=O)N3CCC4(CCN(c5ccncc5)CC4)C3)cc21 (stereo not shown) [IND_CC-417, 2-Methyl-N-[6-(8-pyridin-4-yl-2,8-diazaspiro[4.5]decane-2-carbonyl)-2,3-dihydro-1H-inden-1-yl]-butyramide] | 102
CC(C)C(=O)NC1CCc2ccc(C(=O)N3CCC4(CCN(c5ccncc5)CC4)C3)cc21 (stereo not shown) [IND_CC-419, 2-Methyl-N-[6-(8-pyridin-4-yl-2,8-diazaspiro[4.5]decane-2-carbonyl)-2,3-dihydro-1H-inden-1-yl]-propionamide] | 101
CCC(CC)C(=O)NC1CCc2ccc(C(=O)N3CCC4(CCN(c5ccncc5)CC4)C3)cc21 (stereo not shown) [IND_CC-420, 2-Ethyl-N-[6-(8-pyridin-4-yl-2,8-diazaspiro[4.5]decane-2-carbonyl)-2,3-dihydro-1H-inden-1-yl]-butyramide] | 100
